Measured values from patent US20040058855A1, “Use of materials having zinc ionophoric behavior” (priority 2002, published 2004).
Like-named read-outs stand apart in the source and are kept apart here.

Legend:
[1] = Zinc availability test with metallochromic dye zincon (colour change orange to blue); assay type: physicochemical; details: ~30 mg/10 ml water, pH 7-11, zincon in ethanol
From the text: Zinc-containing materials (ZCMs) differ with respect to how strongly the zinc ion (Zn^2+) is held by counterions in the crystal lattice. The benefits discussed herein depend upon having available Zn^2+. […] The response is a binary visual assessment of whether or not the color changes indicating zinc-binding.
The method is based on the commercial metallochromic dye zincon. Zincon changes from an orange color to blue upon binding zinc and provides the basis for detecting available Zn^2+: [drawing 20]
The specific procedure involves making a stock solution of zincon in ethanol (˜50 mg/10 ml ethanol). The ZCM is then added to water (˜30 mg/10 ml water) and agitated (pH range should be 7-11). Three to four drops of zincon solution are then added to the ZCM in water, agitated and a visual assessment of color change made.

[2] = test system: Malassezia furfur (ATCC 14521); assay: Minimum inhibitory concentration (MIC) against Malassezia furfur in mDixon agar; assay type: cell-based; details: for MIC: Malassezia furfur, lowest tested dilution with no visible growth, 30° for 5 days
Protocol: Antifungal activity is assessed microbiologically by a method as described below^1.
^1. The Minimum Inhibitory Concentration is indicative of anti-fungal efficacy. Generally, the lower the value of the composition, the better its anti-fungal efficacy, due to increased inherent ability of the anti-dandruff agent to inhibit the growth of microorganisms.
Dilutions of solubilized anti-microbial active were then added to test tubes containing molten mDixon agar. M. furfur inoculum was added to each tube of molten agar, the tube vortexed, and the contents poured into separate sterile petri dishes. […] The lowest tested dilution of anti-microbial active that yields no growth is defined as the Minimal Inhibitory Concentration (MIC).
1) Malassezia furfur was grown in a 250 ml Erlenmeyer flask containing 100 ml “mDIXON” medium at 320 rpm and 30° C. until turbid.
2) Selected dilutions were prepared using an appropriate dilution series, of the anti-microbial active or combination in solvent, which allowed the sample active to be solubilized prior to addition to the final test agar.
3) 0.25 ml dilutions of anti-microbial active were added to test tubes containing 9.5 ml molten “mDIXON” agar (held at 45° C. in a water bath).
4) 0.25 M. furfur inoculum (adjusted to 5×10^5 cfu/ml by direct count) was added to each test tube of molten agar.
5) Each tube was vortexed, and the contents poured into separate petri dishes.
6) After the agar solidified, the plates inverted and incubated at 30° for 5 days.
7) The plates were then observed for visible M. furfur growth.
Anti-fungal activity of materials having zinc ionophoric behavior was screened by measurement of minimum inhibitory concentrations (MIC's) against Malassezia furfur.

[3] = test system: human umbilical vein endothelial cells; assay: Rate of zinc transport into model cells (intracellular zinc, Fura-2 fluorescence); assay type: cell-based; details: 1 mM ZPT (0.32 ppm) and an equal weight proportion of zinc salt
Protocol: Measurement of the free zinc levels in cells as a function of time is a direct measure of delivery of zinc across the cell wall/membrane. There are many methods available for assessing this process, many are based on use of intracellular fluorescent dyes. An exemplary method is similar to that reported by Turan et al. (Turan, […]. Am. J. Physiol. 1997, 272, […]-[…]). In this case, […] used, although the procedure is general and can be used with all eukaryotic cells. […] Cells are plated onto a glass cover slip. These immobilized cells are then exposed to a zinc-responsive fluorescent dye such as Fura-2 (Molecular Probes, Inc.) to load the cells with this cell-permeant fluorophore. The cells are then washed to remove dye that is not intracellular. Upon exposure to test treatments, fluorescence is measured as a function of time; in the case of Fura-2, the ratio of fluorescence intensities at 505 nm is taken in response to excitation at 340 and 380 nm. The fluorescence is conveniently measured by using an epifluorescence inverted microscope interfaced to a spectrofluorometer. Fluorescence intensity is proportional to the detected zinc level. […] TPEN) to assure the measured fluorescent response is due to zinc and not an artifact of calcium transport. In the present invention, the method as described herein may be used to identify materials with zinc ionophoric behavior.

[4] = ATCC14521, 120 h, read-out: MIC
[5] = to inhibit M. furfur growth, zinc salt alone (MIC) or together with the stated amount of ZPT

| Compound | available Zn^2+ (zincon colour change, binary visual assessment) [1] | also measured |
| --- | --- | --- |
| zinc histadine | have available zinc | – |
| zinc hexaborate | have available zinc | – |
| N=C(N)NCCC[C@H](N)C(=O)O.[Zn] [zinc arginine] | have available zinc | – |
| Lasalocid | – | MIC [2]: >1000 ppm |
| CNc1ccc2oc(C[C@H]3O[C@@]4(CC[C@H]3C)O[C@H]([C@H](C)C(=O)c3ccc[nH]3)[C@H](C)C[C@H]4C)nc2c1C(=O)O [A23187, Calcimycin] | – | MIC [2, 4]: > 13 µg/mL |
| CC(=O)[O-].CC(=O)[O-].[Zn+2] [zinc acetate] | have available zinc | – |
| zinc stearate | have available zinc | – |
| Cc1ccc2c(Cl)cc(Cl)c(O)c2n1 [Sterosan, 2-Me, 5,7-Dichloro-8-hydroxyquinoline] | – | MIC [2, 4]: 100 µg/mL |
| CC(O)C(=O)[O-].CC(O)C(=O)[O-].[Zn+2] (centres unmarked) [zinc lactate] | have available zinc | – |
| O=C([O-])C(=O)[O-].[Zn+2] [zinc oxalate] | have available zinc | – |
| Oc1c(I)cc(Cl)c2cccnc12 [Enterovioform, 5-Cl, 7-I-8-hydroxyquinoline] | – | MIC [2, 4]: 25 µg/mL |
| CCCCN(CCCC)C(=S)SSC(=S)N(CCCC)CCCC [TBTDS, Tetra-n-butyl thiuram Disulfide] | – | MIC [2, 4]: > 1000 µg/mL |
| O=S(=O)([O-])[O-].[Zn+2] [ZnSO4, zinc sulfate] | have available zinc | Rate of Zinc Transport [3]: ˜0 min^−1; Antifungal activity of ZPT: Amount of zinc salt required [2]: 5000 ppm |
| OCC(O)CO.[Zn] [zinc monoglycerolate] | have available zinc | – |
| Oc1c(I)cc(I)c2cccnc12 [Diodoquin, 5,7-Diiodo-8-hydroxyquinoline] | – | MIC [2, 4]: 25 µg/mL |
| O=C([O-])CC(O)(CC(=O)[O-])C(=O)[O-].O=C([O-])CC(O)(CC(=O)[O-])C(=O)[O-].[Zn+2].[Zn+2].[Zn+2] [zinc citrate] | have available zinc | – |
| [O]=[Zn] [ZnO, zinc oxide] | have available zinc | Rate of Zinc Transport [3]: ˜0 min^−1; Antifungal activity of ZPT: Amount of zinc salt required [2, 5]: 500 ppm |
| [O-]n1ccccc1=S.[O-]n1ccccc1=S.[Zn+2] [ZPT, zinc salt of 1-hydroxy-2-pyridinethione] | – | Rate of Zinc Transport [3]: 4 min⁻¹; Antifungal activity of ZPT: Amount of zinc salt required [2, 5]: 0 ppm; Antifungal activity of ZPT: Amount of ZPT Required (%) ([2]; to inhibit M. furfur growth, 100% ZPT is equivalent to 8 ppm (MIC of ZPT alone)): 100% |
| Oc1c(Br)cc(Br)c2cccnc12 [5,7-D-Br-8-HQ, 5-7-Bibromo-8-hydroxyquinoline] | – | MIC [2, 4]: 25 µg/mL |
| zinc phytate | not having available Zn^2+ | – |
| [OH-].[OH-].[Zn+2] [zinc hydroxide] | have available zinc | – |
| [Cl-].[Cl-].[Zn+2] [zinc chloride] | have available zinc | – |
| O=C([O-])CN(CCN(CC(=O)[O-])CC(=O)[O-])CC(=O)[O-].[Na+].[Na+].[Zn+2] [zinc EDTA] | not having available Zn^2+ | – |
